The values below come from patent US20060100431A1, “Biologically active compounds” (Amura Therapeutics Limited, priority 2002, published 2006).

By Ki is commonly meant the dissociation constant of the complex between target and ligand, obtained from inhibition or displacement.

One assay has as its target Wild-type cruzipain (Trypanosoma cruzi, UniProt P25779). The assay can be described thus: Trypanosoma cruzi cruzipain peptidase activity assay (Ki). The assay is classed as biochemical. The following applies: read-out: Ki, inhibitors of cruzain and cruzipains. A digest of the protocol:
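Native cruzipain from T. cruzi Dm28 epimastigotes, 2.5 nM, in 100 mM sodium phosphate pH 6.75 with 1 mM EDTA and 10 mM L-cysteine, 25 °C, DMSO <1%. Rates taken from continuous fluorogenic substrate read; Ki by regression assuming reversible pure-competitive inhibition.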

The target in a further assay is T1, CPB2.8ΔCTE (Leishmania mexicana, UniProt P36400).
T1 construct: Wild-type recombinant CPB without the C-terminal extention (i.e. CPB2.8ΔCTE); Dr. Jeremy Mottram (Wellcome Centre for Molecular Parasitology, University of Glasgow)
The assay can be described thus: Leishmania mexicana cysteine protease B (CPB) peptidase activity assay (Ki). The assay is classed as biochemical. The following applies: Ki, inhibitors of Leismania mexicana CPB protease. Summed up:
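Recombinant CPB2.8ΔCTE (0.25 nM) was assayed in 100 mM sodium acetate pH 5.5 with 1 mM EDTA, 200 mM NaCl and 10 mM DTT at 25 °C, DMSO <1%, enzyme added to start. Rates were taken from continuous fluorescence slopes; apparent Ki was fitted assuming reversible, pure-competitive inhibition.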

Sequence of Wild-type cruzipain (P25779 whole entry): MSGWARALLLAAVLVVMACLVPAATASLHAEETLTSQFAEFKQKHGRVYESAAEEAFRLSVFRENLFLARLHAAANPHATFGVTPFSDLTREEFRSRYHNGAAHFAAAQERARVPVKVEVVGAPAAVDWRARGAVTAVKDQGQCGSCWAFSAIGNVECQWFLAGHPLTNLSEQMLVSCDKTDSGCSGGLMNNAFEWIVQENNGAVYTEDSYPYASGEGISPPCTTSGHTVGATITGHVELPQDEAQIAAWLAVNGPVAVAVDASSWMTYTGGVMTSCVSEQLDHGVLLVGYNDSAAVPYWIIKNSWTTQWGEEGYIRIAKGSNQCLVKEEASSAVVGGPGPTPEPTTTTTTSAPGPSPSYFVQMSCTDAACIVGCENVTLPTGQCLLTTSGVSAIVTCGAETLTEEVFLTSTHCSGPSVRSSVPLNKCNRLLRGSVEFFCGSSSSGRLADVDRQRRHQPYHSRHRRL
T1 sequence (P36400 126-343, stated change not applied): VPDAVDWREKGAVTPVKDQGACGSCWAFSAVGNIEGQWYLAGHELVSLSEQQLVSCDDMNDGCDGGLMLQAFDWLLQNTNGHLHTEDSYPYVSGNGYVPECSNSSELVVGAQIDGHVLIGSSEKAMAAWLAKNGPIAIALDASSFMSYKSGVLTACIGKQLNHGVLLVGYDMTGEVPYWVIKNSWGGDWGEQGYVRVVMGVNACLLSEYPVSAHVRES

On to `CC(C)C[C@H](NC(=O)c1ccc(-c2ccccc2)s1)C(=O)N1CC[C@@H]2[C@H]1C(=O)CN2C(=O)c1ccccc1` [Example 44, (3aR,6aS)-5-Phenyl-thiophene-2-carboxylic acid [(1S)-1-(4-benzoyl-6-oxo-hexahydro-pyrrolo[3,2-b]pyrrole-1-carbonyl)-3-methyl-butyl]-amide], for which the inhibition constant (Ki) at Wild-type cruzipain and on CPB2.8ΔCTE was < 5 µM throughout.

For the molecule `CC(C)C[C@H](NC(=O)c1ccc(N(C)C)cc1)C(=O)N1CC[C@@H]2[C@H]1C(=O)CN2C(=O)c1ccncc1` [Example 82, (3aR,6aS)-4-Dimethylamino-N-{(1S)-3-methyl-1-[6-oxo-4-(pyridinecarbonyl)-hexahydro-pyrrolo[3,2-b]pyrrole-1-carbonyl]-butyl}-benzamide], the Ki at Wild-type cruzipain and at CPB2.8ΔCTE was < 5 µM throughout.

As for `CC(C)C[C@H](NC(=O)c1ccc(N(C)C)cc1)C(=O)N1CC[C@@H]2[C@H]1C(=O)CN2C(=O)[C@@H](O)CC(C)C` [Example 233, (3aR,6aS)-4-Dimethylamino-N-{(1S)-1-[4-((2S)2-hydroxy-4 methyl-pentanoyl)-6-oxo-hexahydro-pyrrolo[3,2-b]pyrrole-1-carbonyl]-3-methyl-butyl}-benzamide], the inhibition constant Ki at Wild-type cruzipain and on CPB2.8ΔCTE was < 5 µM each time.

Turning to `CC(C)C[C@H](NC(=O)c1ccc(N(C)C)cc1)C(=O)N1CC[C@@H]2[C@H]1C(=O)CN2C(=O)c1ccccc1Cl` [Example 72, (3aR,6aS)-N-{(1S)-1-[4-(2-Chloro-benzoyl)-6-oxo-hexahydro-pyrrolo[3,2-b]pyrrole-1-carbonyl)-3-methyl-butyl}-4-dimethylamino-benzamide], the inhibitory constant (Ki) on Wild-type cruzipain and on CPB2.8ΔCTE was < 5 µM each time.

Take `CC(C)C[C@H](NC(=O)c1ccc(N(C)C)cc1)C(=O)N1CC[C@@H]2[C@H]1C(=O)CN2C(=O)c1ccoc1` [Example 97, (3aR,6aS)-4-Dimethylamino-N-{(1S)-1-[4-(furan-3-carbonyl)-6-oxo-hexahydro-pyrrolo[3,2-b]pyrrole-1-carbonyl]-3-methyl-butyl}-benzamide]: the Ki on Wild-type cruzipain and at CPB2.8ΔCTE was < 5 µM in each case.

Regarding `NCc1cccc(C(=O)N[C@@H](Cc2ccc(O)cc2)C(=O)N2CC[C@@H]3[C@H]2C(=O)CN3C(=O)c2ccccc2)c1` [Example 319, (3aR,6aS)-3-Aminomethyl-N-[(1S)-2-(4-benzoyl-6-oxo-hexahydro-pyrrolo[3,2-b]pyrrole-1-yl)-1-(4-hydroxy-benzyl)-2-oxo-ethyl]-benzamide], the Ki on Wild-type cruzipain and at CPB2.8ΔCTE was < 5 µM in each case.

For `CCCCC(=O)N1CC(=O)[C@@H]2[C@H]1CCN2C(=O)[C@H](CC(C)C)NC(=O)c1ccc(N(C)C)cc1` [Example 128, (3aR,6aS)-4-Dimethylamino-N-[(1S)-3-methyl-1-(6-oxo-4-pentanoyl-hexahydro-pyrrolo[3,2-b]pyrrole-1-carbonyl)-butyl]-benzamide], the inhibition constant (Ki) on Wild-type cruzipain and at CPB2.8ΔCTE was < 5 µM throughout.

In the case of `CC(C)C[C@H](NC(=O)c1ccc(N(C)C)cc1)C(=O)N1CC[C@@H]2[C@H]1C(=O)CN2C(=O)c1cccc(OC(F)(F)F)c1` [Example 70, (3aR,6aS)-4-Dimethylamino-N-{(1S)-3-methyl-1-[6-oxo-4-(3-trifluoromethoxy-benzoyl)-hexahydro-pyrrolo[3,2-b]pyrrole-1-carbonyl]-butyl}-benzamide], the Ki on Wild-type cruzipain and at CPB2.8ΔCTE was < 5 µM each time.

Take `CC(C)C[C@H](NC(=O)c1ccc(N(C)C)cc1)C(=O)N1CC[C@@H]2[C@H]1C(=O)CN2C(=O)c1ccccc1F` [Example 62, (3aR,6aS)-4-Dimethylamino-N-{(1S)-1-[4-(2-fluoro-benzoyl)-6-oxo-hexahydro-pyrrolo[3,2-b]pyrrole-1-carbonyl]-3-methyl-butyl}-benzamide]: the Ki on Wild-type cruzipain and on CPB2.8ΔCTE was < 5 µM in each case.

Regarding `CC(C)C[C@H](NC(=O)c1ccc(N(C)C)cc1)C(=O)N1CC[C@@H]2[C@H]1C(=O)CN2C(=O)c1ccccc1S(C)(=O)=O` [Example 42, (3aR,6aS)-4-Dimethylamino-N-{(1S)-1-[4-(2-methanesulfonyl-benzoyl)-6-oxo-hexahydro-pyrrolo[3,2-b]pyrrole-1-carbonyl]-3-methyl-butyl}-benzamide], the Ki at Wild-type cruzipain and at CPB2.8ΔCTE was < 5 µM each time.

For the molecule `CC(C)C[C@H](NC(=O)c1ccc(N(C)C)cc1)C(=O)N1CC[C@@H]2[C@H]1C(=O)CN2C(=O)c1ccc(OC(F)(F)F)cc1` [Example 71, (3aR,6aS)-4-Dimethylamino-N-{(1S)-3-methyl-1-[6-oxo-(4-trifluoromethoxy-benzoyl)-hexahydro-pyrrolo[3,2-b]pyrrole-1-carbonyl]-butyl}-benzamide], the inhibitory constant (Ki) on Wild-type cruzipain and on CPB2.8ΔCTE was < 5 µM throughout.

As to `CC(C)C[C@H](NC(=O)c1ccc(N(C)C)cc1)C(=O)N1CC[C@@H]2[C@H]1C(=O)CN2C(=O)N1CCCC1` [Example 235, (3aR,6aS)-4-Dimethylamino-N-{(1S)-3-methyl-1-[6-oxo-4-(pyrrolidine-1-carbonyl)-hexahydro-pyrrolo[3,2-b]pyrrole-1-carbonyl]-butyl}-benzamide], the Ki on Wild-type cruzipain and at CPB2.8ΔCTE was < 5 µM throughout.

`CC(C)C[C@H](NC(=O)c1ccc(N(C)C)cc1)C(=O)N1CC[C@@H]2[C@H]1C(=O)CN2C(=O)[C@@H](N)CC(C)(C)C` [Example 212, (3aR,6aS)-N-{(1S)-1-[4-((2S)-2-Amino-4,4-dimethyl-pentanoyl)-6-oxo-hexahydro-pyrrolo[3,2-b]pyrrole-1-carbonyl]-3-methyl-butyl}-4-dimethylamino-benzamide]: the inhibition constant (Ki) at Wild-type cruzipain and on CPB2.8ΔCTE was < 5 µM in each case.

`CC(C)C[C@H](NC(=O)c1ccc(C(C)(C)C)cc1)C(=O)N1CC[C@@H]2[C@H]1C(=O)CN2C(=O)c1cccc(Br)c1` [Example 25, (3aR,6aS)-N-{(1S)-1-[4-(3-Bromo-benzoyl)-6-oxo-hexahydro-pyrrolo[3,2-b]pyrrole-1-carbonyl]-3-methyl-butyl}-4-tert-butyl-benzamide]: the Ki at Wild-type cruzipain and at CPB2.8ΔCTE was < 5 µM each time.

Turning to `Cc1ccc(C(=O)N2CC(=O)[C@@H]3[C@H]2CCN3C(=O)[C@H](CC(C)C)NC(=O)c2ccc(N(C)C)cc2)cc1C` [Example 114, (3aR,6aS)-4-Dimethylamino-N-{(1S)-1-[4-(3,4-dimethyl-benzoyl)-6-oxo-hexahydro-pyrrolo[3,2-b]pyrrole-1-carbonyl]-3-methyl-butyl}-benzamide], the Ki at Wild-type cruzipain and at CPB2.8ΔCTE was < 5 µM in each case.

For the molecule `CC(C)C[C@H](NC(=O)c1ccc(N(C)C)cc1)C(=O)N1CC[C@@H]2[C@H]1C(=O)CN2C(=O)c1ccc([N+](=O)[O-])cc1` [Example 47, (3aR,6aS)-4-Dimethylamino-N-{(1S)-3-methyl-1-[4-(4-nitro-benzoyl)-6-oxo-hexahydro-pyrrolo[3,2-b]pyrrole-1-carbonyl]-butyl}-benzamide], the inhibitory constant (Ki) on Wild-type cruzipain and at CPB2.8ΔCTE was < 5 µM each time.

Take `CC(C)C[C@H](NC(=O)c1ccc(N(C)C)cc1)C(=O)N1CC[C@@H]2[C@H]1C(=O)CN2C(=O)c1cc2ccccc2o1` [Example 101, (3aR,6aS)-N-{(1S)-1-[4-(Benzofuran-2-carbonyl)-6-oxo-hexahydro-pyrrolo[3,2-b]pyrrole-1-carbonyl]-3-methyl-butyl}-4-dimethylamino-benzamide]: the Ki on Wild-type cruzipain and at CPB2.8ΔCTE was < 5 µM throughout.
